The subject of test [1] is fEPSPs in the CA1 region of rat hippocampal slices. Put plainly: CA1 cell firing, fEPSPs in hippocampal slices. The conditions noted are these: CA1 fEPSP amplitude, 6 slices averaged. The class given is cell-based. As for the experimental part: Rat hippocampal slices of 400 μm thickness were cut in chilled (<4° C.) artificial cerebrospinal fluid (aCSF, composition in mM: NaCl 127, KCl 1.6, KH2PO4 1.24, MgSO4 1.3, CaCl2 2.4, NaHCO3 26 and D-glucose 10) using vibratome. Slices were maintained in oxygenated (95% O2/5% CO2) aCSF at room temperature for at least 1 hr prior to electrophysiological recording, after which they were transferred to an interface chamber and constantly perfused with warmed (30° C.) oxygenated aCSF at a flow rate of 1.5-3 ml.min-1. Schaffer collaterals were then stimulated (1-20 V, 0.1 ms pulse width, 0.033 Hz) with a concentric bipolar electrode to evoke field excitatory post synaptic potentials (fEPSPs) recorded from the stratum radiatum of the CA1 region. Experiments were performed to examine the effect of compound compared to 1 μM carbachol (CCh), on the amplitude of fEPSPs in the CA1 region of rat hippocampal slices. 1 μM CCh was initially applied until steady-state, followed by wash, before performing a five point cumulative concentration-response to compound. Each compound was tested on 6 slices and results averaged. Drug preparation; compound was dissolved in 100% DMSO at a stock concentration of 30 mM, and diluted according to requirements, carbamoylcholine chloride (CCh) was purchased from Sigma (Cat#C4382) and dissolved at a stock concentration of 1 mM in ddH2O.

In test [2] the target is T1, human muscarinic M3 receptor (Homo sapiens, UniProt P20309).
T1 construct: expressed in transfected cells
T1 sequence (P20309 whole entry): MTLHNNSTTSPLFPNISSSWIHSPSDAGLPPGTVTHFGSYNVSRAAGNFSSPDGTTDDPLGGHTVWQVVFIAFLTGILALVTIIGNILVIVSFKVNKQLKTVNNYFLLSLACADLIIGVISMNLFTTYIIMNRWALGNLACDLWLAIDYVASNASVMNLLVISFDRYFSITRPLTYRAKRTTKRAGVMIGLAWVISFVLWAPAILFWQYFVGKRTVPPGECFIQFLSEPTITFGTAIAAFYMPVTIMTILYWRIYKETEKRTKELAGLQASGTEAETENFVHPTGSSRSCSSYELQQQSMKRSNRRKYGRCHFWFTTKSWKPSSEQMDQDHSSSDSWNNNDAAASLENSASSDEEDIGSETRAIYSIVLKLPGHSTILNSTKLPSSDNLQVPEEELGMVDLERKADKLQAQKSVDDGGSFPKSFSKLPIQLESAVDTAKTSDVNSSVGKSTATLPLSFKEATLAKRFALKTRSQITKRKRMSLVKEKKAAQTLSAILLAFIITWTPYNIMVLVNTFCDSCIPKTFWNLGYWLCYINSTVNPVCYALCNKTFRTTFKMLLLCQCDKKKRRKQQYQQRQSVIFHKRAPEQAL
As to the kind of experiment: Alphascreen Surefire phospho-ERK1/2 functional assay, M3. Format: cell-based. The note with it: for EC50: CHO cells stably expressing human M3, phospho-ERK1/2, read-out: pEC50 M3 (converted); for Emax: CHO, read-out: % Emax cf. ACh, M3. As for the experimental part:
(§1) ERK1/2 phosphorylation is a downstream consequence of both Gq/11 and Gi/o protein coupled receptor activation, making it highly suitable for the assessment of M1, M3 (Gq/11 coupled) and M2, M4 receptors (Gi/o coupled), rather than using different assay formats for different receptor subtypes. CHO cells stably expressing the human muscarinic M1, M2, M3 or M4 receptor were plated (25K/well) onto 96-well tissue culture plates in MEM-alpha+10% dialysed FBS. Once adhered, cells were serum-starved overnight. Agonist stimulation was performed by the addition of 5 μL agonist to the cells for 5 min (37° C.). Media was removed and 50 μL of lysis buffer added. After 15 min, a 4 μL sample was transferred to 384-well plate and 7 μL of detection mixture added. Plates were incubated for 2 h with gentle agitation in the dark and then read on a PHERAstar plate reader.
(§2) pEC50 and Emax figures were calculated from the resulting data for each receptor subtype.

Test [3] deals with T2, human muscarinic M1 receptor (Homo sapiens, UniProt P11229).
T2 construct: expressed in transfected cells
T2 sequence (P11229 1-460): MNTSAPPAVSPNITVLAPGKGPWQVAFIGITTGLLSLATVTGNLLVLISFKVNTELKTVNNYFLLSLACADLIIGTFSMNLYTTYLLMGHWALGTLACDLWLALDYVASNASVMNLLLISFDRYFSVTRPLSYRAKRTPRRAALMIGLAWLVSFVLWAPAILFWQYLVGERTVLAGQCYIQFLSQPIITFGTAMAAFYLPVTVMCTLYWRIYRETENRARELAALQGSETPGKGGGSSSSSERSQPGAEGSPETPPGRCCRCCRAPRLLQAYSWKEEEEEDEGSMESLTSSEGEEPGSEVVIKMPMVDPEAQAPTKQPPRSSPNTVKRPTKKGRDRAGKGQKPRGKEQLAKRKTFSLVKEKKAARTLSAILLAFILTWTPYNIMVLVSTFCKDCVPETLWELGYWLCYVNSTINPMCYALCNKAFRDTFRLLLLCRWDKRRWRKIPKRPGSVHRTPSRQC
As to the kind of experiment: Alphascreen Surefire phospho-ERK1/2 functional assay, M1. The note with it: for EC50: CHO cells stably expressing human M1, phospho-ERK1/2, read-out: pEC50 M1 (converted); for Emax: CHO. The class given is cell-based. As for the experimental part: as §1, §2

For test [4], the target named is T3, human muscarinic M2 receptor (Homo sapiens, UniProt P08172).
T3 construct: expressed in transfected cells
T3 sequence (P08172 1-466): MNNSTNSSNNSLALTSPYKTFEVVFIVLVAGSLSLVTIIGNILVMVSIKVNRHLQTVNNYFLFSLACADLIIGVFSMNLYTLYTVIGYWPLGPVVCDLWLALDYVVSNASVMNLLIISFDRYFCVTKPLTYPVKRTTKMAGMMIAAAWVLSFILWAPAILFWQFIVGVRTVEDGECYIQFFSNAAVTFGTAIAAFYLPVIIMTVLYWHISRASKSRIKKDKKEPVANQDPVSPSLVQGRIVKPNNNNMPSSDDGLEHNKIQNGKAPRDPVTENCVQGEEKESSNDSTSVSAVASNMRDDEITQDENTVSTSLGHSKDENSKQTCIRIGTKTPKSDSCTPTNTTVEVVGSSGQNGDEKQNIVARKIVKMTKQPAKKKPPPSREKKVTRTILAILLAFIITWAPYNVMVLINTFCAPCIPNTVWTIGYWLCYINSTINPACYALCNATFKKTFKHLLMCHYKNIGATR
As to the kind of experiment: Alphascreen Surefire phospho-ERK1/2 functional assay, M2. Format: cell-based. The note with it: for EC50: CHO cells stably expressing human M2, phospho-ERK1/2, read-out: pEC50 M2 (converted); for Emax: CHO, read-out: % Emax cf. ACh, M2. As for the experimental part:
as §1, §2

The subject of test [5] is scopolamine-induced amnesia. Put plainly: Passive avoidance, scopolamine-induced amnesia. Format: in vivo. The procedure:
Studies were carried out as described previously by Foley et al., (2004) Neuropsychopharmacology. In the passive avoidance task scopolamine administration (1 mg/kg, i.p.) at 6 hours following training rendered animals amnesic of the paradigm. A dose range of 3, 10, and 30 mg/kg (po) free base, administered 90 minutes prior to the training period via oral gavage, was examined.

The target of test [6] is T4, human muscarinic M4 receptor (Homo sapiens, UniProt P08173).
T4 construct: expressed in transfected cells
T4 sequence (P08173 1-479): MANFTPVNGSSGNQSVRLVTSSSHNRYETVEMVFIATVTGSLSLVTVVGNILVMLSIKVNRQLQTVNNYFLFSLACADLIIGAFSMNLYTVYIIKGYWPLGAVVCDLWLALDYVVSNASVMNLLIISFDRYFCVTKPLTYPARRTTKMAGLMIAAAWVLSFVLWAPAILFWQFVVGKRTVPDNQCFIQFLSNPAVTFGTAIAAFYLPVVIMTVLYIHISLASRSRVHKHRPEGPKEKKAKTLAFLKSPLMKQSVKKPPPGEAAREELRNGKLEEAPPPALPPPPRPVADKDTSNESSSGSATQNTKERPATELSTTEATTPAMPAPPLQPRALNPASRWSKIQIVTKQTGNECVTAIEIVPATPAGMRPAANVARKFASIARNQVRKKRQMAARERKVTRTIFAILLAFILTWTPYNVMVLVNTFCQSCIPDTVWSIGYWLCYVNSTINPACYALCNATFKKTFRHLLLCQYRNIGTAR
Put plainly: Alphascreen Surefire phospho-ERK1/2 functional assay, M4. The class given is cell-based. The conditions noted are these: for EC50: CHO cells stably expressing human M4, phospho-ERK1/2, read-out: pEC50 M4 (converted); for Emax: CHO. As for the experimental part: as §1, §2

Where two headings read alike, the source gives them in different places.

As for `CCOC(=O)N1CCC2(CC(N3CCC(C(=O)NC4(C)CCC4)CC3)C2)C1` (single isomer, unassigned) [Example 9 - Isomer 2, ethyl 2-{4-[(1-methylcyclobutyl)carbamoyl]piperidin-1-yl}-6-azaspiro[3.4]octane-6-carboxylate], the EC50 in test [1] was 5700 nM; in test [2], more than 20000 nM; in test [3] it was 36.3 nM; in test [4], more than 20000 nM; in test [6], 182 nM. Further, the Emax in test [2] was 9%; in test [3] (read-out: % Emax cf. ACh, M1, CHO cells stably expressing human M1, relative to ACh) it was 100%; in test [4], 15%; in test [6] (read-out: % Emax cf. ACh, M4, CHO cells stably expressing human M4, relative to ACh), 66%. Besides, in test [5] (3, 10 and 30 mg/kg po), the “reversal of scopolamine-induced amnesia of the passive avoidance paradigm” value is on record as “reverse scopolamine-induced amnesia of the paradigm in a dose-dependent manner”. Also, in test [5] (po, 90 minutes prior to training, scopolamine 1 mg/kg i.p., read-out: approximate ED50, reversal of scopolamine-induced amnesia), the ED50 is approximately 10 mg/kg.

For `[2H]C([2H])([2H])C1(NC(=O)C2CCN(C3CC4(CCN(C(=O)OCC)C4)C3)CC2)CCC1` (single isomer, unassigned) [Example 21 - Isomer 2, ethyl 2-(4-{[1-(1,1,1-trideuteromethyl)cyclobutyl]carbamoyl}piperidin-1-yl)-6-azaspiro[3.4]octane-6-carboxylate], the EC50 is more than 20000 nM in test [2], 67.6 nM in test [3], more than 20000 nM in test [4] and 170 nM in test [6]. Besides, the Emax in test [2] was found to be 12%; in test [3] (read-out: % Emax cf. ACh, M1), 107%; in test [4], 9%; in test [6] (read-out: % Emax cf. ACh, M4), 111%.

As for `[2H]C([2H])([2H])COC(=O)N1CCC2(CC(N3CCC(C(=O)NC4(C)CCC4)CC3)C2)C1` (single isomer, unassigned) [Example 25 - Isomer 2, (2,2,2-trideutero)ethyl 2-{4-[(1-methylcyclobutyl)carbamoyl]piperidin-1-yl}-6-azaspiro[3.4]octane-6-carboxylate], the EC50 in test [2] is more than 20000 nM; in test [3], 53.7 nM; in test [4] it was more than 20000 nM; in test [6], 174 nM. Moreover, the Emax in test [2] was 17%; in test [3] (read-out: % Emax cf. ACh, M1) it was 108%; in test [4], 23%; in test [6] (read-out: % Emax cf. ACh, M4), 83%.

For `[2H]C([2H])([2H])C([2H])([2H])OC(=O)N1CCC2(CC(N3CCC(C(=O)NC4(C)CCC4)CC3)C2)C1` (single isomer, unassigned) [Example 29 - Isomer 2, (1,1,2,2,2-pentadeutero)ethyl 2-{4-[(1-methylcyclobutyl)carbamoyl]piperidin-1-yl}-6-azaspiro[3.4]octane-6-carboxylate], the EC50 was more than 20000 nM in test [2], 55 nM in test [3], more than 20000 nM in test [4] and 186 nM in test [6]. Also, the maximal effect (Emax) in test [2] was 13%; in test [3] (read-out: % Emax cf. ACh, M1), 107%; in test [4], 18%; in test [6] (read-out: % Emax cf. ACh, M4) it was 91%.

The values above are taken from patent US9266857B2, “Bicyclic AZA compounds as muscarinic M1 receptor agonists” (Heptares Therapeutics Limited, priority 2012, dated 2016).
